From ChEMBL document CHEMBL1909046, “DrugMatrix in vitro pharmacology data”

Key:
[1] = DRUGMATRIX: Glutamate, NMDA, Agonism radioligand binding (ligand: [3H] CGP-39653); type: cell membranes, Rattus norvegicus, Wistar, Cerebral cortex, Membrane; conditions: Not Active = under 50% inhibition at 10 µM
[2] = DRUGMATRIX: Phosphodiesterase PDE4 enzyme inhibition (substrate: [3H]cAMP + cAMP); conditions: u-937; Not Active = under 50% inhibition at 10 µM
Caspase-1 = molecular target: T1, Caspase-1 (Homo sapiens, UniProt P29466); parameters: species or system Escherichia coli;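 further: Caspase-1 enzyme inhibition assay with a peptide substrate; in other assays of this panel Not Active means under 50% inhibition at 10 µM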
T1 sequence (P29466 whole entry): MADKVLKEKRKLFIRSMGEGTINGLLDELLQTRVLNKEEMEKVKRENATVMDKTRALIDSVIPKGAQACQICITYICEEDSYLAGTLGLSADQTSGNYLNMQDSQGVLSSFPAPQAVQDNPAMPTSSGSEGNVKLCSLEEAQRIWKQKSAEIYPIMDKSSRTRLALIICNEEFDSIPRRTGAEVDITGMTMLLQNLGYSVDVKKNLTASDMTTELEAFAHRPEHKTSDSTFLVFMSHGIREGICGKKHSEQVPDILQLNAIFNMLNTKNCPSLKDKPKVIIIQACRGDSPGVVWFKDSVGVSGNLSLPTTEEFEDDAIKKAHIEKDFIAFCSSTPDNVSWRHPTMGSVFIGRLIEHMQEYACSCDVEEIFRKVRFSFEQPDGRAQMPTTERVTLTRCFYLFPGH

Cytochrome P450 1A2 = molecular target: T2, Cytochrome P450 1A2 (Homo sapiens, UniProt P05177); conditions: bti-tn-5b1-4; further: in other assays of this panel Not Active means under 50% inhibition at 10 µM
T2 sequence (P05177 whole entry): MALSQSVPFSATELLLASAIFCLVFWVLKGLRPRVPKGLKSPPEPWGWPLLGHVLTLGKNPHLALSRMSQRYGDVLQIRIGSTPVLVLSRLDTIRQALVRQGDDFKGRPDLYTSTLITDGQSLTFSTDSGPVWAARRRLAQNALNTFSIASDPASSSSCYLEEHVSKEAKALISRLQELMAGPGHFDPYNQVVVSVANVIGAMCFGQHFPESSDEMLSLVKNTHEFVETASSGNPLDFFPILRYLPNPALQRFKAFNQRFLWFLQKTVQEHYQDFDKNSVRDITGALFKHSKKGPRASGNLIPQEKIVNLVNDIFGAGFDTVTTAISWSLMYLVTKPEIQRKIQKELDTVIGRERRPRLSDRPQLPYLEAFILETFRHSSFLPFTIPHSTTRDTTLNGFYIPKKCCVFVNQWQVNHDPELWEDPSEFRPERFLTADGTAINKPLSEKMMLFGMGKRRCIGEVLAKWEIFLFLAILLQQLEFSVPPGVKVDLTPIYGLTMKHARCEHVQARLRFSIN

[3] = DRUGMATRIX: Purinergic P2X radioligand binding (ligand: [3H] alpha, beta-Methylene-ATP); type: cell membranes, Oryctolagus cuniculus, New Zealand albino, Urinary bladder, Membrane; conditions: Not Active = under 50% inhibition at 10 µM
[4] = DRUGMATRIX: beta-Lactamase enzyme inhibition (substrate: Nitrocefin); parameters: species or system Bacillus cereus; conditions: Not Active = under 50% inhibition at 10 µM
[5] = DRUGMATRIX: Phorbol Ester radioligand binding (ligand: [3H] PDBu); type: cell membranes, Mus musculus, ICR, Brain, Membrane; conditions: Not Active = under 50% inhibition at 10 µM
Estrogen receptor = molecular target: T3, Estrogen receptor (Homo sapiens, UniProt P03372); conditions: sf9; further: in other assays of this panel Not Active means under 50% inhibition at 10 µM
T3 sequence (P03372 whole entry): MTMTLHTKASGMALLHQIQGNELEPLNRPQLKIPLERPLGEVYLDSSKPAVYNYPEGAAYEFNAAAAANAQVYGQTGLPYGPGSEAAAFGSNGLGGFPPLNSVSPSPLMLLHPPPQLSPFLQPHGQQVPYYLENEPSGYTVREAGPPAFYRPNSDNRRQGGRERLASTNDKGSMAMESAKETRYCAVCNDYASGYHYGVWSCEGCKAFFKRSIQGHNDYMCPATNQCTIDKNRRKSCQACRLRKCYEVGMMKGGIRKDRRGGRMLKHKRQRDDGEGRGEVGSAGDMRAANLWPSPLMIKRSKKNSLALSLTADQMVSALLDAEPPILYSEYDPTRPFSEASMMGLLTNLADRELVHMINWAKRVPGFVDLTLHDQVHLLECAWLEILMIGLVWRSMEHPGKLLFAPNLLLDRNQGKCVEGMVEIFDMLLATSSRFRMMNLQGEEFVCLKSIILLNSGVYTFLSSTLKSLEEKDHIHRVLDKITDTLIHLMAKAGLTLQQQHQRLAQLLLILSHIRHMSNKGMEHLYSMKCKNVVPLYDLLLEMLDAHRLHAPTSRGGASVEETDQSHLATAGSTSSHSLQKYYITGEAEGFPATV

[6] = molecular target: Matrix metalloproteinase-9 (Homo sapiens, UniProt P14780); assay: biochemical; type: cell-based;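 further: inhibition of isolated MMP-9 enzyme activity toward a synthetic peptide substrate, from the DrugMatrix protease screening panel; in other assays of this panel Not Active means under 50% inhibition at 10 µM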
Matrix metalloproteinase-9, sequence (P14780 whole entry): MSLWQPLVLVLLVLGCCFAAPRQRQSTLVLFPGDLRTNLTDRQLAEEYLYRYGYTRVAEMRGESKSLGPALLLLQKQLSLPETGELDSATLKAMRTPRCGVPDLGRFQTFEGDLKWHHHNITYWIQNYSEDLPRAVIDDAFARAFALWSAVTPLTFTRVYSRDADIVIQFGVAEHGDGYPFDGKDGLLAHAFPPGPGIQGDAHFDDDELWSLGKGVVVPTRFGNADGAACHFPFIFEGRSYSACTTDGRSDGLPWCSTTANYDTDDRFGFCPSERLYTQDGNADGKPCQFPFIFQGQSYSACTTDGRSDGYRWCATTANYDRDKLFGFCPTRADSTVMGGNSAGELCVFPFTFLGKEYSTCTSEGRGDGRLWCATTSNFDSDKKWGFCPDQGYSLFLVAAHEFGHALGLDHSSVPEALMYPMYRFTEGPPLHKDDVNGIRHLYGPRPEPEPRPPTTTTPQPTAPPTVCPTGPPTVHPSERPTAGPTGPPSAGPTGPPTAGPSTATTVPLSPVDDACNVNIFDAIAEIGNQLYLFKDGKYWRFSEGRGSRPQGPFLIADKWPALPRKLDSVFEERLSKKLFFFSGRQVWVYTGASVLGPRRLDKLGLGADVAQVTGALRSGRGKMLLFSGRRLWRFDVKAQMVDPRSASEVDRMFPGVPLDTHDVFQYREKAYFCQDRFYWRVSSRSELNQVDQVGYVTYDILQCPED

CC(=O)O[C@]1(C(C)=O)CC[C@H]2[C@@H]3C=C(C)C4=CC(=O)CC[C@]4(C)[C@H]3CC[C@@]21C [MEGESTROL ACETATE]
Not Active: IC50 [1] | Ki [1] | IC50 [2] | Ki [2] | IC50 (Caspase-1) | IC50 (Cytochrome P450 1A2) | Ki (Cytochrome P450 1A2) | IC50 [3] | Ki [3] | IC50 [4] | Ki [4] | IC50 [5] | Ki [5] | IC50 (Estrogen receptor) | IC50 [6]

COc1ccccc1OCC(O)COC(N)=O (stereo not drawn) [METHOCARBAMOL]
Not Active: IC50 [1] | Ki [1] | IC50 [2] | Ki [2] | IC50 (Caspase-1) | IC50 (Cytochrome P450 1A2) | Ki (Cytochrome P450 1A2) | IC50 [3] | Ki [3] | IC50 [4] | Ki [4] | IC50 [5] | Ki [5] | IC50 (Estrogen receptor) | IC50 [6]

CN(Cc1cnc2nc(N)nc(N)c2n1)c1ccc(C(=O)N[C@@H](CCC(=O)O)C(=O)O)cc1 [METHOTREXATE]
Not Active: IC50 [1] | Ki [1] | IC50 [2] | Ki [2] | IC50 (Caspase-1) | IC50 (Cytochrome P450 1A2) | Ki (Cytochrome P450 1A2) | IC50 [3] | Ki [3] | IC50 [4] | Ki [4] | IC50 [5] | Ki [5] | IC50 (Estrogen receptor) | IC50 [6]

COC(=O)c1ccccc1O [METHYL SALICYLATE]
Not Active: IC50 [1] | Ki [1] | IC50 [2] | Ki [2] | IC50 (Caspase-1) | IC50 (Cytochrome P450 1A2) | Ki (Cytochrome P450 1A2) | IC50 [3] | Ki [3] | IC50 [4] | Ki [4] | IC50 [5] | Ki [5] | IC50 (Estrogen receptor) | IC50 [6]

C[C@]12C/C(=C/O)C(=O)C[C@@H]1CC[C@@H]1[C@@H]2CC[C@@]2(C)[C@H]1CC[C@]2(C)O [OXYMETHOLONE]
Not Active: IC50 [1] | Ki [1] | IC50 [2] | Ki [2] | IC50 (Caspase-1) | IC50 (Cytochrome P450 1A2) | Ki (Cytochrome P450 1A2) | IC50 [3] | Ki [3] | IC50 [4] | Ki [4] | IC50 [5] | Ki [5] | IC50 (Estrogen receptor) | IC50 [6]

CC(C)(CO)C(O)C(=O)NCCCO (stereo not drawn) [PANTHENOL]
Not Active: IC50 [1] | Ki [1] | IC50 [2] | Ki [2] | IC50 (Caspase-1) | IC50 (Cytochrome P450 1A2) | Ki (Cytochrome P450 1A2) | IC50 [3] | Ki [3] | IC50 [4] | Ki [4] | IC50 [5] | Ki [5] | IC50 (Estrogen receptor) | IC50 [6]

CCCCC1C(=O)N(c2ccccc2)N(c2ccccc2)C1=O [PHENYLBUTAZONE]
Not Active: IC50 [1] | Ki [1] | IC50 [2] | Ki [2] | IC50 (Caspase-1) | IC50 (Cytochrome P450 1A2) | Ki (Cytochrome P450 1A2) | IC50 [3] | Ki [3] | IC50 [4] | Ki [4] | IC50 [5] | Ki [5] | IC50 (Estrogen receptor) | IC50 [6]

Cc1cccc(Nc2cc(Cl)nc(SCC(=O)O)n2)c1C [PIRINIXIC ACID]
Not Active: IC50 [1] | Ki [1] | IC50 [2] | Ki [2] | IC50 (Caspase-1) | IC50 (Cytochrome P450 1A2) | Ki (Cytochrome P450 1A2) | IC50 [3] | Ki [3] | IC50 [4] | Ki [4] | IC50 [5] | Ki [5] | IC50 (Estrogen receptor) | IC50 [6]

CC[C@H](C)C(=O)O[C@H]1C[C@H](O)C=C2C=C[C@H](C)[C@H](CC[C@@H](O)C[C@@H](O)CC(=O)O)[C@H]21 [PRAVASTATIN]
Not Active: IC50 [1] | Ki [1] | IC50 [2] | Ki [2] | IC50 (Caspase-1) | IC50 (Cytochrome P450 1A2) | Ki (Cytochrome P450 1A2) | IC50 [3] | Ki [3] | IC50 [4] | Ki [4] | IC50 [5] | Ki [5] | IC50 (Estrogen receptor) | IC50 [6]

COBALT(II) ACETYLACETONATE
Not Active: IC50 [1] | Ki [1] | IC50 [2] | Ki [2] | IC50 (Caspase-1) | Ki (Caspase-1) | IC50 (Cytochrome P450 1A2) | Ki (Cytochrome P450 1A2) | IC50 [3] | Ki [3] | IC50 [4] | Ki [4] | IC50 [5] | Ki [5] | IC50 (Estrogen receptor) | Ki (Estrogen receptor) | IC50 [6] | Ki [6]
